ChEMBL document CHEMBL1909046, “DrugMatrix in vitro pharmacology data”

Columns and labels:
[1] = DRUGMATRIX: Atrial Natriuretic Factor (ANF) radioligand binding (ligand: [125I] ANF (rat)); type: cell membranes, Cavia porcellus, Dunkin-Hartley, Adrenal gland, Membrane; conditions: Not Active = under 50% inhibition at 10 µM
Calcitonin receptor = target: T1, Calcitonin receptor (Homo sapiens, UniProt P30988); type: cell membranes, Membrane; conditions: t47d; further: in other assays of this panel Not Active means under 50% inhibition at 10 µM
T1 sequence (P30988 whole entry): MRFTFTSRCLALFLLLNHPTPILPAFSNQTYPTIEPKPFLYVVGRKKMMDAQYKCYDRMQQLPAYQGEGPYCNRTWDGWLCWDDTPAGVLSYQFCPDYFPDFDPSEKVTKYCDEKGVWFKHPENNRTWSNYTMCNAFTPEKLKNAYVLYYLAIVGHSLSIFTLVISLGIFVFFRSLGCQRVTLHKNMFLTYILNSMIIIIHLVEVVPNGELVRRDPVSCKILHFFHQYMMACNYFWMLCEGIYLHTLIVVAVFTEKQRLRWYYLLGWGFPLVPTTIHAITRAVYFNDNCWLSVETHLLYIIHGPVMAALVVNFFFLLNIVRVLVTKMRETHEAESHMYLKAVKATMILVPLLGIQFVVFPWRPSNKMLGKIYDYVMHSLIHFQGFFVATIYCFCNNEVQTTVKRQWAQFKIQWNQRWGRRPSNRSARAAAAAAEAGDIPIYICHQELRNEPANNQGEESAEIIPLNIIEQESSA

[2] = DRUGMATRIX: Calcium Channel Type L, Dihydropyridine radioligand binding (ligand: [3H] Nitrendipine); type: cell membranes, Rattus norvegicus, Wistar, Cerebral cortex, Membrane; conditions: Not Active = under 50% inhibition at 10 µM
Cannabinoid receptor 1 = Cannabinoid receptor 1 (Homo sapiens, UniProt P21554); type: cell membranes, Membrane; conditions: chem-1; further: in other assays of this panel Not Active means under 50% inhibition at 10 µM
[3] = DRUGMATRIX: GABAA, Chloride Channel, TBOB radioligand binding (ligand: [3H] TBOB); type: cell membranes, Rattus norvegicus, Wistar, Cerebral cortex, Membrane; conditions: Not Active = under 50% inhibition at 10 µM
Glycine receptor = Glycine receptor (Rattus norvegicus, UniProt P22771+P24524+P07727+P20781); type: cell membranes, Wistar, Spinal cord, Membrane; further: in other assays of this panel Not Active means under 50% inhibition at 10 µM
[4] = DRUGMATRIX: Nicotinic Acetylcholine radioligand binding (ligand: [125I] Epibatidine); type: cell membranes, Membrane; conditions: imr-32; Not Active = under 50% inhibition at 10 µM

Cannabinoid receptor 1, sequence (P21554 whole entry): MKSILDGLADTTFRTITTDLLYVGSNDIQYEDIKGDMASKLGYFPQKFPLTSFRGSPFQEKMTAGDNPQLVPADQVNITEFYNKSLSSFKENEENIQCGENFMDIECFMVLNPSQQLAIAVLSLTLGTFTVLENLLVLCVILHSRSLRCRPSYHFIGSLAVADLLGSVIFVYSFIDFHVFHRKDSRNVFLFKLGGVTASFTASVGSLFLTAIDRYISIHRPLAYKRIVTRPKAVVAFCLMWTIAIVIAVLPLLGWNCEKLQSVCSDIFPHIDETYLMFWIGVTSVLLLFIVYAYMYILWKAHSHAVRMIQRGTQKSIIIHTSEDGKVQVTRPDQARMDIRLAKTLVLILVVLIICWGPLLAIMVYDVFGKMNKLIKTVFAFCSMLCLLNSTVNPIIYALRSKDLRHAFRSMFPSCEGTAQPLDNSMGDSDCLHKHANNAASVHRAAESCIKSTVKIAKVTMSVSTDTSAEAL

COc1cc2c3cc1Oc1cc(ccc1O)C[C@@H]1c4c(cc(OC)c(O)c4Oc4ccc(cc4)C[C@@H]3N(C)CC2)CC[N+]1(C)C.[Cl-]
Not Active: IC50 [1] | Ki [1] | IC50 (Calcitonin receptor) | IC50 [2] | Ki [2] | IC50 (Cannabinoid receptor 1) | IC50 [3] | Ki [3] | IC50 (Glycine receptor) | IC50 [4] | Ki [4]

CC(C)C(Br)C(=O)NC(N)=O (centres undefined) [BROMISOVALUM]
Not Active: IC50 [1] | Ki [1] | IC50 (Calcitonin receptor) | IC50 [2] | Ki [2] | IC50 (Cannabinoid receptor 1) | IC50 [3] | Ki [3] | IC50 (Glycine receptor) | IC50 [4] | Ki [4]

CCCC1O[C@@H]2C[C@H]3[C@@H]4CCC5=CC(=O)C=C[C@]5(C)[C@H]4[C@@H](O)C[C@]3(C)[C@]2(C(=O)CO)O1 (some centres undefined) [BUDESONIDE]
Not Active: IC50 [1] | Ki [1] | IC50 (Calcitonin receptor) | IC50 [2] | Ki [2] | IC50 (Cannabinoid receptor 1) | IC50 [3] | Ki [3] | IC50 (Glycine receptor) | IC50 [4] | Ki [4]

O=C(O)CCCc1ccc(N(CCCl)CCCl)cc1 [CHLORAMBUCIL]
Not Active: IC50 [1] | Ki [1] | IC50 (Calcitonin receptor) | IC50 [2] | Ki [2] | IC50 (Cannabinoid receptor 1) | IC50 [3] | Ki [3] | IC50 (Glycine receptor) | IC50 [4] | Ki [4]

CC(C)(C)NCC(O)c1cc(Cl)c(N)c(Cl)c1 (centres undefined) [CLENBUTEROL]
Not Active: IC50 [1] | Ki [1] | IC50 (Calcitonin receptor) | IC50 [2] | Ki [2] | IC50 (Cannabinoid receptor 1) | IC50 [3] | Ki [3] | IC50 (Glycine receptor) | IC50 [4] | Ki [4]

CC1CC(OC(=O)C(O)c2ccccc2)CC(C)(C)C1 (centres undefined) [CYCLANDELATE]
Not Active: IC50 [1] | Ki [1] | IC50 (Calcitonin receptor) | IC50 [2] | Ki [2] | IC50 (Cannabinoid receptor 1) | IC50 [3] | Ki [3] | IC50 (Glycine receptor) | IC50 [4] | Ki [4]

CNCCCN1c2ccccc2CCc2ccccc21 [DESIPRAMINE]
Not Active: IC50 [1] | Ki [1] | IC50 (Calcitonin receptor) | IC50 [2] | Ki [2] | IC50 (Cannabinoid receptor 1) | IC50 [3] | Ki [3] | IC50 (Glycine receptor) | IC50 [4] | Ki [4]

O=c1oc2ccccc2c(O)c1Cc1c(O)c2ccccc2oc1=O [DICUMAROL]
Not Active: IC50 [1] | Ki [1] | IC50 (Calcitonin receptor) | IC50 [2] | Ki [2] | IC50 (Cannabinoid receptor 1) | IC50 [3] | Ki [3] | IC50 (Glycine receptor) | IC50 [4] | Ki [4]

CC(=O)O[C@@]12CO[C@@H]1C[C@H](O)[C@@]1(C)C(=O)[C@H](O)C3=C(C)[C@@H](OC(=O)[C@H](O)[C@@H](NC(=O)OC(C)(C)C)c4ccccc4)C[C@@](O)([C@@H](OC(=O)c4ccccc4)[C@H]21)C3(C)C.O.O.O [DOCETAXEL]
Not Active: IC50 [1] | Ki [1] | IC50 (Calcitonin receptor) | IC50 [2] | Ki [2] | IC50 (Cannabinoid receptor 1) | IC50 [3] | Ki [3] | IC50 (Glycine receptor) | IC50 [4] | Ki [4]

COc1cc2nc(N3CCN(C(=O)C4COc5ccccc5O4)CC3)nc(N)c2cc1OC (centres undefined) [DOXAZOSIN]
Not Active: IC50 [1] | Ki [1] | IC50 (Calcitonin receptor) | IC50 [2] | Ki [2] | IC50 (Cannabinoid receptor 1) | IC50 [3] | Ki [3] | IC50 (Glycine receptor) | IC50 [4] | Ki [4]

C[C@H]1c2cccc(O)c2C(=O)C2=C(O)[C@]3(O)C(=O)C(C(N)=O)=C(O)[C@@H](N(C)C)[C@@H]3[C@@H](O)[C@@H]21.O [DOXYCYCLINE]
Not Active: IC50 [1] | Ki [1] | IC50 (Calcitonin receptor) | IC50 [2] | Ki [2] | IC50 (Cannabinoid receptor 1) | IC50 [3] | Ki [3] | IC50 (Glycine receptor) | IC50 [4] | Ki [4]

C[C@]12CC[C@@H]3c4ccc(O)cc4CC[C@H]3[C@@H]1CCC2=O [ESTRONE]
Not Active: IC50 [1] | Ki [1] | IC50 (Calcitonin receptor) | IC50 [2] | Ki [2] | IC50 (Cannabinoid receptor 1) | IC50 [3] | Ki [3] | IC50 (Glycine receptor) | IC50 [4] | Ki [4]

CC(C)C(=O)Nc1ccc([N+](=O)[O-])c(C(F)(F)F)c1 [FLUTAMIDE]
Not Active: IC50 [1] | Ki [1] | IC50 (Calcitonin receptor) | IC50 [2] | Ki [2] | IC50 (Cannabinoid receptor 1) | IC50 [3] | Ki [3] | IC50 (Glycine receptor) | IC50 [4] | Ki [4]

CC1(C)O[C@@H]2C[C@H]3[C@@H]4CCC5=CC(=O)CC[C@]5(C)[C@@]4(F)[C@@H](O)C[C@]3(C)[C@]2(C(=O)CCl)O1 [HALCINONIDE]
Not Active: IC50 [1] | Ki [1] | IC50 (Calcitonin receptor) | IC50 [2] | Ki [2] | IC50 (Cannabinoid receptor 1) | IC50 [3] | Ki [3] | IC50 (Glycine receptor) | IC50 [4] | Ki [4]

CC1Cc2ccccc2N1NC(=O)c1ccc(Cl)c(S(N)(=O)=O)c1 (centres undefined) [INDAPAMIDE]
Not Active: IC50 [1] | Ki [1] | IC50 (Calcitonin receptor) | IC50 [2] | Ki [2] | IC50 (Cannabinoid receptor 1) | IC50 [3] | Ki [3] | IC50 (Glycine receptor) | IC50 [4] | Ki [4]

CCC(C)n1ncn(-c2ccc(N3CCN(c4ccc(OCC5COC(Cn6cncn6)(c6ccc(Cl)cc6Cl)O5)cc4)CC3)cc2)c1=O (centres undefined) [ITRACONAZOLE]
Not Active: IC50 [1] | Ki [1] | IC50 (Calcitonin receptor) | IC50 [2] | Ki [2] | IC50 (Cannabinoid receptor 1) | IC50 [3] | Ki [3] | IC50 (Glycine receptor) | IC50 [4] | Ki [4]

CCCCN1CCCC[C@H]1C(=O)Nc1c(C)cccc1C [LEVOBUPIVACAINE]
Not Active: IC50 [1] | Ki [1] | IC50 (Calcitonin receptor) | IC50 [2] | Ki [2] | IC50 (Cannabinoid receptor 1) | IC50 [3] | Ki [3] | IC50 (Glycine receptor) | IC50 [4] | Ki [4]

Sc1ncnc2nc[nH]c12 [MERCAPTOPURINE ANHYDROUS]
Not Active: IC50 [1] | Ki [1] | IC50 (Calcitonin receptor) | IC50 [2] | Ki [2] | IC50 (Cannabinoid receptor 1) | IC50 [3] | Ki [3] | IC50 (Glycine receptor) | IC50 [4] | Ki [4]

C[C@](N)(Cc1ccc(O)c(O)c1)C(=O)O [METHYLDOPA]
Not Active: IC50 [1] | Ki [1] | IC50 (Calcitonin receptor) | IC50 [2] | Ki [2] | IC50 (Cannabinoid receptor 1) | IC50 [3] | Ki [3] | IC50 (Glycine receptor) | IC50 [4] | Ki [4]
